Data published in PubChem BioAssay (NCI).
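The compound was tested at five concentrations on cells cultured in 96-well plates, with a 48-hour exposure period. At the GI50, growth is halved. The concentration for full growth arrest is given as TGI.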

Columns and labels:
Assay in all cases: NCI anticancer screen, dose series, 48 h; in the data active = GI50 below about 0.43 µM; inactive = the rest
[1] = tested on: 786-0 renal
[2] = tested on: A549 NSCLC
[3] = tested on: ACHN renal
[4] = tested on: BT-549 breast
[5] = tested on: CAKI-1 renal
[6] = tested on: CCRF-CEM leukemia
[7] = tested on: COLO 205 colon
[8] = tested on: EKVX NSCLC
[9] = tested on: HCT-15 colon
[10] = tested on: HL-60(TB) leukemia
[11] = tested on: HOP-62 NSCLC
[12] = tested on: HOP-92 NSCLC
[13] = tested on: HS 578T breast
[14] = tested on: HT29 colon
[15] = tested on: IGROV1 ovarian
[16] = tested on: K-562 leukemia
[17] = tested on: KM12 colon
[18] = tested on: LOX IMVI melanoma
[19] = tested on: M14 melanoma
[20] = tested on: MALME-3M melanoma
[21] = tested on: MCF7 breast
[22] = tested on: MDA-MB-435
[23] = tested on: MOLT-4 leukemia
[24] = tested on: NCI-H226 lung
[25] = tested on: NCI-H23 lung
[26] = tested on: NCI-H460 lung
[27] = tested on: NCI-H522 lung
[28] = tested on: NCI/ADR-RES ovarian
[29] = tested on: OVCAR-3 ovarian
[30] = tested on: OVCAR-4 ovarian
[31] = tested on: OVCAR-5 ovarian
[32] = tested on: OVCAR-8 ovarian
[33] = tested on: PC-3 prostate
[34] = tested on: RPMI-8226 leukemia
[35] = tested on: SF-268 CNS
[36] = tested on: SF-295 CNS
[37] = tested on: SK-MEL-2 melanoma
[38] = tested on: SK-MEL-28 melanoma
[39] = tested on: SK-MEL-5 melanoma
[40] = tested on: SK-OV-3 ovarian
[41] = tested on: SN12C renal
[42] = tested on: SNB-19 CNS
[43] = tested on: SNB-75 CNS
[44] = tested on: SR leukemia
[45] = tested on: SW-620 colon
[46] = tested on: T-47D breast
[47] = tested on: TK-10 renal
[48] = tested on: U251 CNS
[49] = tested on: UACC-257 melanoma
[50] = tested on: UACC-62 melanoma
[51] = tested on: UO-31 renal
[52] = tested on: A498 renal
[53] = tested on: DU-145 prostate
[54] = tested on: HCC-2998 colon
[55] = tested on: HCT-116 colon
[56] = tested on: MDA-MB-231 breast
[57] = tested on: RXF 393 renal
[58] = tested on: SF-539 CNS

CC12CCC(CC1(Cl)Cl)C2 (stereo not given)
> 100000 nM: TGI [1] | TGI [2] | TGI [3] | TGI [4] | TGI [5] | TGI [6] | TGI [7] | TGI [8] | TGI [9] | TGI [10] | TGI [11] | TGI [12] | TGI [13] | TGI [14] | TGI [15] | TGI [16] | TGI [17] | TGI [18] | TGI [19] | TGI [20] | TGI [21] | TGI [22] | TGI [23] | TGI [24] | TGI [25] | TGI [26] | TGI [27] | TGI [28] | TGI [29] | TGI [30] | TGI [31] | TGI [32] | TGI [33] | TGI [34] | TGI [35] | TGI [36] | TGI [37] | TGI [38] | TGI [39] | TGI [40] | TGI [41] | TGI [42] | TGI [43] | TGI [44] | TGI [45] | TGI [46] | TGI [47] | TGI [48] | TGI [49] | TGI [50] | TGI [51]

CC(=O)O[C@H](C[C@H](C(C)C)N(C)C(=O)[C@@H](NC(=O)[C@H]1CCCCN1C)C(C)C)c1cccc(C(=O)N[C@@H](Cc2ccccc2)C[C@H](C)C(=O)O)n1
> 25000 nM: TGI [1] | TGI [2] | TGI [3] | TGI [5] | TGI [6] | TGI [8] | TGI [54] | TGI [9] | TGI [11] | TGI [12] | TGI [15] | TGI [16] | TGI [17] | TGI [18] | TGI [20] | TGI [21] | TGI [23] | TGI [25] | TGI [30] | TGI [31] | TGI [32] | TGI [33] | TGI [34] | TGI [57] | TGI [35] | TGI [37] | TGI [40] | TGI [41] | TGI [42] | TGI [43] | TGI [44] | TGI [45] | TGI [46] | TGI [48] | TGI [50] | TGI [51]
401 nM: TGI [27]
> 13400 nM: TGI [26]
> 10600 nM: TGI [28]
73.7 nM: TGI [52]
32.1 nM: TGI [10]
360 nM: TGI [39]
1490 nM: TGI [53]
> 8210 nM: TGI [14]
inactive: GI50 [28] 2060 nM
480 nM: TGI [4]
329 nM: TGI [7]
62.6 nM: TGI [58]
5360 nM: TGI [24]
10100 nM: TGI [56]
> 8590 nM: TGI [55]
active: GI50 [1] 46.3 nM | GI50 [52] 15.8 nM | GI50 [2] 66.6 nM | GI50 [3] 95.5 nM | GI50 [4] 15.4 nM | GI50 [5] 68.6 nM | GI50 [6] 17.5 nM | GI50 [7] 27.9 nM | GI50 [53] 26.3 nM | GI50 [8] 255 nM | GI50 [54] 54.4 nM | GI50 [55] 22.2 nM | GI50 [9] 219 nM | GI50 [10] 6.9 nM | GI50 [11] 64.8 nM | GI50 [12] 18.3 nM | GI50 [14] 24.2 nM | GI50 [15] 28.7 nM | GI50 [16] 10.3 nM | GI50 [17] 26.2 nM | GI50 [18] 25.5 nM | GI50 [19] 23.7 nM | GI50 [20] 16.4 nM | GI50 [21] 9.92 nM | GI50 [56] 33.2 nM | GI50 [23] 21.9 nM | GI50 [24] 67 nM | GI50 [25] 51 nM | GI50 [26] 29.7 nM | GI50 [27] 11.6 nM | GI50 [29] 7.07 nM | GI50 [30] 107 nM | GI50 [31] 248 nM | GI50 [32] 47.5 nM | GI50 [33] 32.1 nM | GI50 [34] 21.3 nM | GI50 [57] 22.5 nM | GI50 [35] 50 nM | GI50 [36] 33.3 nM | GI50 [58] 19.3 nM | GI50 [37] 15.9 nM | GI50 [39] 15.5 nM | GI50 [40] 31.2 nM | GI50 [41] 44 nM | GI50 [42] 34.3 nM | GI50 [43] 6.95 nM | GI50 [44] 4.29 nM | GI50 [45] < 22.2 nM | GI50 [46] 81.8 nM | GI50 [48] 35.3 nM | GI50 [50] 27.6 nM | GI50 [51] 330 nM
> 5290 nM: TGI [36]
